Publication PMC7475166 (Journal of medicinal chemistry, 2015)

Legend:
[1] = biological target: Bcr-Abl^T315I in Ba/F3 cells (Homo sapiens, UniProt P00519+P11274, T315I); conditions: 500 nM, 3 h, immunoblot
[2] = biological target: Bcr-Abl^WT in Ba/F3 cells (Homo sapiens, UniProt P00519+P11274); conditions: 500 nM, 3 h, immunoblot
[3] = test system: parental Ba/F3 cells that do not express Bcr-Abl; assay: Counterscreen against parental Ba/F3 cells; assay type: cell-based
CSF1R = CSF1R (Homo sapiens, UniProt P07333); assay: SelectScreen Kinase Profiling; assay type: biochemical; conditions: read-out: inhibition of CSF1R
CSF1R, sequence (P07333 20-972): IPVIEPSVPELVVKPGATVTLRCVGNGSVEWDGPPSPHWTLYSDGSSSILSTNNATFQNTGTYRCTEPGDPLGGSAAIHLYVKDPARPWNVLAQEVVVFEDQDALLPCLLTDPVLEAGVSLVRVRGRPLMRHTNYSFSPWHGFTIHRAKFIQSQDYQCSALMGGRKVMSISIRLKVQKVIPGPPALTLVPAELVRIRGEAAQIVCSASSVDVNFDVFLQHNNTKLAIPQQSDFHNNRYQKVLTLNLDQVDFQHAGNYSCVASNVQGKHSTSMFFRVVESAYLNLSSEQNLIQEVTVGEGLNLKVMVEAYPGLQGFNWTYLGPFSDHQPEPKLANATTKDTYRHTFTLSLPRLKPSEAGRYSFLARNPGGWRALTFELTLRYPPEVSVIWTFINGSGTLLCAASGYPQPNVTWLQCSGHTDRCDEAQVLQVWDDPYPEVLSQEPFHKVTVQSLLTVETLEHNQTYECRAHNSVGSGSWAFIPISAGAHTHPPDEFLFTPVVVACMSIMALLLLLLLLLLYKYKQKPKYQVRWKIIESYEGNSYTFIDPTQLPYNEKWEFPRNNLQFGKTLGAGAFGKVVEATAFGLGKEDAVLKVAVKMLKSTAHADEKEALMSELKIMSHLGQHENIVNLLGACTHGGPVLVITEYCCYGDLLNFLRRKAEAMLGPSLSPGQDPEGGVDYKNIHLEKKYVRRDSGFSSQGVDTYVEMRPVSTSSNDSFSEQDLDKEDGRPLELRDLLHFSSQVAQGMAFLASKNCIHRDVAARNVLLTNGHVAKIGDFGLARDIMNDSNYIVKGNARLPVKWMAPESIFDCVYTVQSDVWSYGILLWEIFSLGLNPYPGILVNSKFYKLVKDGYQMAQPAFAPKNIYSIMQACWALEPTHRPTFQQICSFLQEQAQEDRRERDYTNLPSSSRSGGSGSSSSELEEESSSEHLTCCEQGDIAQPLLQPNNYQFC

Yes1 = Yes1 (Homo sapiens, UniProt P07947); assay: SelectScreen Kinase Profiling; assay type: biochemical; conditions: read-out: inhibition of Yes1
Yes1, sequence (P07947 whole entry): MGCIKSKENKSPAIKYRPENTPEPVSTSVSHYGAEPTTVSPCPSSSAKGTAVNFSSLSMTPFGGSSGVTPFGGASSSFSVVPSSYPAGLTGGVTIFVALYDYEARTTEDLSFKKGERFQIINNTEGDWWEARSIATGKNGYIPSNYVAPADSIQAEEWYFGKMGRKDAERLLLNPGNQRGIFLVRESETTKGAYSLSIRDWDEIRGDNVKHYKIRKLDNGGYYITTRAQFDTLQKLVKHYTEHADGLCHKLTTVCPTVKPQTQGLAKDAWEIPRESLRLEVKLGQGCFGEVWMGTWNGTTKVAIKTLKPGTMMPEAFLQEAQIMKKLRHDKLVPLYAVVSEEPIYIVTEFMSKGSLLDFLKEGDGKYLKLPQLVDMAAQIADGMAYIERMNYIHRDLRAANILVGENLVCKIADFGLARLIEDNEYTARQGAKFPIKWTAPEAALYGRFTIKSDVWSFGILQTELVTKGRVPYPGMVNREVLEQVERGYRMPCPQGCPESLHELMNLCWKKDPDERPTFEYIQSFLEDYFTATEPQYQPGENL

Blk = Blk (Homo sapiens, UniProt P51451); assay: SelectScreen Kinase Profiling; assay type: biochemical
Blk, sequence (P51451 whole entry): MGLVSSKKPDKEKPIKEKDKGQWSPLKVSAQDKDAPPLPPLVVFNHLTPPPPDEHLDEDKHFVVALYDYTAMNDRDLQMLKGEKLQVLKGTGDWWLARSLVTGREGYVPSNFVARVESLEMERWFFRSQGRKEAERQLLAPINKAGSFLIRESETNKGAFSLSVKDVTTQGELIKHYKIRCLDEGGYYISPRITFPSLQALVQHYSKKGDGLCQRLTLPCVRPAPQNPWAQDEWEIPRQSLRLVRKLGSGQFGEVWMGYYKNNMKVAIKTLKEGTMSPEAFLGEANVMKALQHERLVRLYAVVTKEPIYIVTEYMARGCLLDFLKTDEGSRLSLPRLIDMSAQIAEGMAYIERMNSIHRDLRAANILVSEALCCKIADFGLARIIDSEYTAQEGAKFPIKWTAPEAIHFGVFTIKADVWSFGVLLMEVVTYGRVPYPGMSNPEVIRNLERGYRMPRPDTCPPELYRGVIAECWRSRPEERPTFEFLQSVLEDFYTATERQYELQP

MUSK = biological target: T1, MUSK (Homo sapiens, UniProt O15146); assay: SelectScreen Kinase Profiling; assay type: biochemical
T1 sequence (O15146 24-869): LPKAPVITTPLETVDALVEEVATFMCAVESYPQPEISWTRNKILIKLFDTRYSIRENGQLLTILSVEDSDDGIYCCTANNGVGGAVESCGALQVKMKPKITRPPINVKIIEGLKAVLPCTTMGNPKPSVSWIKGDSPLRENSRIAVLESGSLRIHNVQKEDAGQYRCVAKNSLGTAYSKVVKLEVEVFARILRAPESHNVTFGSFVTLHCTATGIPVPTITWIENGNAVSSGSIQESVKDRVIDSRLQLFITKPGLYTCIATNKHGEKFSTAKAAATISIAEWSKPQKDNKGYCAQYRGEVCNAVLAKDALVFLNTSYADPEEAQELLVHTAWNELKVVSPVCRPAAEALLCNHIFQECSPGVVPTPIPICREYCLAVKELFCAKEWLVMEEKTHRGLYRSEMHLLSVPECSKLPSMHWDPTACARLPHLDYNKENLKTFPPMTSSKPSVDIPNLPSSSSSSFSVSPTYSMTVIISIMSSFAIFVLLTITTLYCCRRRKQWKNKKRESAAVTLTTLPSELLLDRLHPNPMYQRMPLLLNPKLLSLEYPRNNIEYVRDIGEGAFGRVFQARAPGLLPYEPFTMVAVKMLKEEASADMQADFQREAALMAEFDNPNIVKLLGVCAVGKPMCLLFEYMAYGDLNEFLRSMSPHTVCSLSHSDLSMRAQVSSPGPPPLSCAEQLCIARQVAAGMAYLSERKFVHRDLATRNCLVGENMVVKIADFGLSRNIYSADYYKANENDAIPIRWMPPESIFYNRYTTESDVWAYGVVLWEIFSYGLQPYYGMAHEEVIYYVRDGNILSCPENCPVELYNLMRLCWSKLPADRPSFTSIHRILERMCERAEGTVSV

TrkA = TrkA (Homo sapiens, UniProt P04629); assay: SelectScreen Kinase Profiling; assay type: biochemical
TrkA, sequence (P04629 33-796): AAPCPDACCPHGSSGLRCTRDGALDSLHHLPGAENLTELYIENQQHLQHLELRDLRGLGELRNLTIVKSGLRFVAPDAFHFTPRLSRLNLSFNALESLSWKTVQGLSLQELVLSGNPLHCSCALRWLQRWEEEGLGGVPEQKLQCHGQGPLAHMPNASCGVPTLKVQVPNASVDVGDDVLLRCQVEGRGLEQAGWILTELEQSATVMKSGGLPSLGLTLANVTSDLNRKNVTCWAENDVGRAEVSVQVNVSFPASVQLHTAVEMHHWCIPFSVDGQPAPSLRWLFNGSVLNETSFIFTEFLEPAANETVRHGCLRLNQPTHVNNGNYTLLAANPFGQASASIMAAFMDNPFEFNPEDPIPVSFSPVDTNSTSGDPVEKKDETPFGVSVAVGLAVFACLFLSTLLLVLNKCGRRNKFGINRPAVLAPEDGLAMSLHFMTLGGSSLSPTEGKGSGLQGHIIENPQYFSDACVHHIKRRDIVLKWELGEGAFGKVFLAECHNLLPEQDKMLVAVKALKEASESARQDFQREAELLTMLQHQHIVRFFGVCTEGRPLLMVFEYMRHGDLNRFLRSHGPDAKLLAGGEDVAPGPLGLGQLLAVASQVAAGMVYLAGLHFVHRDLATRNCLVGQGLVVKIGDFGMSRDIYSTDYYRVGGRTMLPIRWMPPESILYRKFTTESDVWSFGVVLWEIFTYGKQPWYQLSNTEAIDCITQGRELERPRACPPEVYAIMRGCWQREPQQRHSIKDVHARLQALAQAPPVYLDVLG

[4] = test system: diverse set of 66 kinases; assay: SelectScreen Kinase Profiling, whole panel; assay type: biochemical; conditions: 50 nM

CC(C)n1nc(C#Cc2cccc(O)c2)c2c(N)ncnc21 [Compound 3, 3-((4-Amino-1-isopropyl-1H-pyrazolo[3,4-d]pyrimidin-3-yl)-ethynyl)phenol]
phosphorylation of Abl (Tyr412) and STAT5 (Tyr694) [1]: only partially inhibited
phosphorylation of Abl (Tyr412) and STAT5 (Tyr694) [2]: only partially inhibited

CC(C)n1nc(C#Cc2cccc(NC(=O)c3cccc(C(F)(F)F)c3)c2)c2c(N)ncnc21 [Compound 15, N-(3-((4-Amino-1-isopropyl-1H-pyrazolo[3,4-d]pyrimidin-3-yl)-ethynyl)phenyl)-3-(trifluoromethyl)benzamide]
window between IC50 values against parental Ba/F3 cells and those expressing Bcr-Abl [3]: over 100 fold
inhibition of proliferation of parental Ba/F3 cells ([3]; at concentrations below 1 μM): do not inhibit
inhibition at 0.05 µM (CSF1R): 40 to 80%
inhibition at 0.05 µM (Yes1): 40 to 80%
inhibition of Blk (Blk; 50 nM): not significantly affected
inhibition of MUSK (MUSK; 50 nM): not significantly affected
inhibition of TrkA (TrkA; 50 nM): not significantly affected
number of kinases potently inhibited (>80% inhibition) [4]: 9
phosphorylation of Abl (Tyr412) and STAT5 (Tyr694) [1]: abolished
phosphorylation of Abl (Tyr412) and STAT5 (Tyr694) [2]: abolished

Cc1ccc(C(=O)Nc2ccc(CN3CCN(C)CC3)c(C(F)(F)F)c2)cc1C#Cc1cnc2cccnn12 [Ponatinib, reference compound]
inhibition at 0.05 µM (CSF1R): > 80%
inhibition at 0.05 µM (Yes1): > 80%
inhibition at 0.05 µM (Blk; read-out: inhibition of Blk): > 80%
inhibition at 0.05 µM (MUSK; read-out: inhibition of MUSK): > 80%
inhibition at 0.05 µM (TrkA; read-out: inhibition of TrkA): > 80%
